From patent US20110098177A1, “METHODS AND COMPOSITIONS OF PLANT MICRONUTRIENTS” (NOVUS INTERNATIONAL INC., priority 2006, published 2011)
“Also recorded” adds a separate entry of the source. Like-named read-outs stand apart in the source and are kept apart here. Marks after values point to notes of the source that are not given here.

Legend:
Format in all cases: in vivo
[1] = system: Tygress tomato plants; assay: Foliar nutrient concentration at 6 WAT, open-field tomato (Examples 7-10); settings: 6 WAT, open field; for Foliar B concentration of tomato plants / Foliar Ca concentration of tomato plants / Foliar Cu concentration of tomato plants / Foliar Fe concentration of tomato plants / Foliar K concentration of tomato plants / Foliar Mg concentration of tomato plants / Foliar Mn concentration of tomato plants / Foliar N concentration of tomato plants / Foliar P concentration of tomato plants / Foliar Zn concentration of tomato plants: product rate as Table 17
Outline: (§1)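 Open-field 2008 trial, Balm FL; 'Tygress' tomato and 'Patriot' pepper transplants on drip-fed raised beds. Foliar micronutrient sprays at 3 and 5 WAT (BIOX-CM at 4 and 5), 60 gal/acre with surfactant. Youngest mature leaves sampled 6 WAT; RCBD, 5 replications, Fisher's LSD 5%.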

[2] = system: Florida-47 tomato; settings: for Tomato toxicity: 1 week after treatment, scale 0 = no visible injury, 10 = plant death
Outline: (§2)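 Florida-47 tomato and Aristotle bell pepper transplants in 2-gal pots with low-nutrient medium (pH 5.36), drip-irrigated; products at three rates in deionized water plus non-ionic surfactant sprayed on newly matured leaves at 3 and 7 WAT. Toxicity scored at 4 WAT (0=no damage, 10=death); foliar tissue analysed at 6 WAT; marketable fruit harvested 4 times (tomato).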

[3] = system: Aristotle bell pepper; settings: 1 week after treatment, scale 0 = no visible injury, 10 = plant death
Outline: as §2

[4] = system: Tygress tomato plants; assay: Nutrient concentration of tomato fruits at 10 WAT, open field (Examples 7-10); settings: for B concentration of tomato fruits / Ca concentration of tomato fruits / Cu concentration of tomato fruits / Fe concentration of tomato fruits / K concentration of tomato fruits / Mg concentration of tomato fruits / Mn concentration of tomato fruits / N concentration of tomato fruits / P concentration of tomato fruits / Zn concentration of tomato fruits: 10 WAT, open field, product rate as Table 17
Outline: as §1

[5] = system: Patriot bell pepper plants; assay: Foliar nutrient concentration at 6 WAT, open-field bell pepper (Examples 7-10); settings: for Foliar B concentration of bell pepper plants / Foliar Ca concentration of bell pepper plants / Foliar Cu concentration of bell pepper plants / Foliar Fe concentration of bell pepper plants / Foliar K concentration of bell pepper plants / Foliar Mg concentration of bell pepper plants / Foliar Mn concentration of bell pepper plants / Foliar N concentration of bell pepper plants / Foliar P concentration of bell pepper plants / Foliar Zn concentration of bell pepper plants: product rate as Table 17
Outline: as §1

[6] = system: Tygress tomato plants; assay: Marketable yield, open-field tomato (Examples 7-10); settings: open field; for Marketable yield, Tomato: lb/acre/season: BIOX-Z 1.3, Cu 6.7, M 23.0, Fe 3.2, INC 4.0, INZ 0.6, CM 10.0, GZ 1.0, GF 4.0, EDZ 1.4, EDM 23.0
Outline: as §1

[7] = system: Aristotle bell pepper; assay: Marketable yield per plant, greenhouse Fall 2007, bell pepper
Protocol: (§3) The following experiments were performed in a green house during the fall of 2007 at GCREC, Balm, University of Florida. Fifteen products, at 3 different application rates were examined. The plot size was 2-gallon pots. Crop set-up, procedures and variables were as follows.
(§4) Transplants of ‘Florida-47’ tomato and ‘Aristotle’ bell pepper plants in the 4-true leaf stage (about 6 inches tall) were planted in 2-gal pots on Aug. 27, 2007. Pots were filled with a commercially available planting medium. This medium was selected based on the mineral composition of the products to be applied without providing significant nutritional inputs to the crops. Irrigation was provided with drip lines delivering between 0.50 and 0.33 gal/day/pot for tomato and bell pepper, respectively, and the crops were irrigated three times per day. No foliar pesticides were necessary.
(§5) There were four control treatments corresponding to each target micronutrient in which non-Fe, non-Mn, non-Zn or non-Cu pots received all other essential nutrients under non-limiting conditions.
(§6) Treatments were applied at three rates (high, medium and low) obtained from the estimated concentration of Zn, Fe, Cu, and Mn foliarly-applied in tomato and bell pepper in field situations (Table 1). Products were weighed and dissolved in 200 ml of deionized water with a non-ionic surfactant and applied to the newly-matured open leaves of each crop at 3 and 7 weeks after transplant (WAT). Treated pots were isolated during application to avoid cross-contamination of other treatments.
(§7) Medium nutrient concentration was determined 1 week before treatment. The mineral composition of the medium was 26.8 ppm NH4—N, 49 ppm NO3—N, 15.8 ppm P, 91.2 ppm K, 82.3 ppm Ca, 58.2 ppm Mg, 23.9 ppm Na, 125.6 ppm S, 1.33 ppm Fe, 0.39 ppm Mn, 0.35 ppm Zn, 0.05 pp, Cu, 0.04 ppm B, 0 ppm Mo, 0.73 ppm Al, and 12.1 ppm Si. The pH of the medium was 5.36 and the electric conductivity was 1.38 mS/cm. The foliar tissue analysis was performed at 6 WAT and the concentration of N, P, K, Mg, Ca, S, B, Zn, Mn, Fe, and Cu was determined by a commercial laboratory. Plant toxicity was determined at 4 WAT by using a 0-10 visual scale, where 0=no visible damage and 10=total plant death. Marketable fruit weight was collected 2 times in bell pepper and 4 times in tomato following USDA standards.
(§8) Data were analyzed using a general linear model, and means were separated using orthogonal contrasts at the 5% significance level.

[8] = system: Florida-47 tomato; assay: Marketable yield per plant, greenhouse Fall 2007, tomato
Protocol: as §3, §4, §5, §6, §7, §8

[9] = foliar application at 3 and 7 WAT, rates not separated

CSCCC(O)C(=O)[O-].CSCCC(O)C(=O)[O-].[Mn+2] (stereo not drawn) [BIOX-M, Mn-HMTBA]
Foliar concentration of Mn of tomato plants, statement [1]: significant increase; also recorded: highest foliar concentration of Mn; also recorded: significantly higher foliar Mn content
Foliar concentration of P of tomato plants compared to control, statement [1]: significant increase
Foliar B concentration of tomato plants [1]: 70 ppm
Foliar Ca concentration of tomato plants [1]: 1.7%
Foliar Cu concentration of tomato plants [1]: 417 ppm
Foliar Fe concentration of tomato plants [1]: 88 ppm
Foliar K concentration of tomato plants [1]: 4.6 b %
Foliar Mg concentration of tomato plants [1]: 0.56%
Foliar Mn concentration of tomato plants [1]: 470 a ppm
Foliar N concentration of tomato plants [1]: 4.4%
Foliar P concentration of tomato plants [1]: 0.19 b %
Foliar Zn concentration of tomato plants [1]: 266 b ppm
Tomato toxicity ([2]; High rate): 0
Tomato toxicity ([2]; Low rate): 0
Tomato toxicity ([2]; Medium rate): 0
Toxic effect on the plant (in words) ([2]; manganese concentration of 0.015% to 0.124% by weight, both crops): no toxic effect
Pepper toxicity ([3]; High rate): 0
Pepper toxicity ([3]; Low rate): 0
Pepper toxicity ([3]; Medium rate): 0
B concentration of tomato fruits [4]: 23 ppm
Ca concentration of tomato fruits [4]: 0.2%
Cu concentration of tomato fruits [4]: 23 b ppm
Fe concentration of tomato fruits [4]: 81 b ppm
K concentration of tomato fruits [4]: 8.0%
Mg concentration of tomato fruits [4]: 0.37%
Mn concentration of tomato fruits [4]: 43 b ppm
N concentration of tomato fruits [4]: 4.2%
P concentration of tomato fruits [4]: 0.65%
Zn concentration of tomato fruits [4]: 209 b ppm
Foliar B concentration of bell pepper plants ([5]; 6 WAT, open field): 59 ppm
Foliar Ca concentration of bell pepper plants ([5]; 6 WAT, open field): 4.2%
Foliar Cu concentration of bell pepper plants ([5]; 6 WAT, open field): 462 ppm
Foliar Fe concentration of bell pepper plants ([5]; 6 WAT, open field): 124 ppm
Foliar K concentration of bell pepper plants ([5]; 6 WAT, open field): 3.4%
Foliar Mg concentration of bell pepper plants ([5]; 6 WAT, open field): 0.52%
Foliar Mn concentration of bell pepper plants ([5]; 6 WAT, open field): 436 ppm
Foliar N concentration of bell pepper plants ([5]; 6 WAT, open field): 4.4%
Foliar P concentration of bell pepper plants ([5]; 6 WAT, open field): 0.25%
Foliar Zn concentration of bell pepper plants ([5]; 6 WAT, open field): 63 ppm
Tomato marketable yield compared to control, statement [6]: significantly higher marketable yield of tomato fruits; also recorded: higher marketable yield of tomato fruits compared to control
Marketable yield, Tomato [6]: 18.1 a ton/acre
Marketable yield per plant, Pepper [7, 9]: 3.9* lb/plant
Bell pepper yield compared with control (in words) ([7]; foliar applications, P<0.05): significantly increased
Marketable yield per plant, Tomato [8, 9]: 5.8* lb/plant
Tomato yield compared with control (in words) ([8]; foliar applications, P<0.05): significantly increased

Fe-HMTBA [BIOX-Fe]
Foliar B concentration of tomato plants [1]: 21 ppm
Foliar Ca concentration of tomato plants [1]: 0.2%
Foliar Cu concentration of tomato plants [1]: 21 ppm
Foliar Fe concentration of tomato plants [1]: 77 ppm
Foliar K concentration of tomato plants [1]: 8.2%
Foliar Mg concentration of tomato plants [1]: 0.37%
Foliar Mn concentration of tomato plants [1]: 37 ppm
Foliar N concentration of tomato plants [1]: 4.2%
Foliar P concentration of tomato plants [1]: 0.69%
Foliar Zn concentration of tomato plants [1]: 294 ppm
Nutrient concentration of tomato fruits: B ([4]; tomato fruits at 10 WAT): 21 ppm
Nutrient concentration of tomato fruits: Ca ([4]; tomato fruits at 10 WAT): 0.2%
Nutrient concentration of tomato fruits: Cu ([4]; tomato fruits at 10 WAT): 21 ppm
Nutrient concentration of tomato fruits: Fe ([4]; tomato fruits at 10 WAT): 77 ppm
Nutrient concentration of tomato fruits: K ([4]; tomato fruits at 10 WAT): 8.2%
Nutrient concentration of tomato fruits: Mg ([4]; tomato fruits at 10 WAT): 0.37%
Nutrient concentration of tomato fruits: Mn ([4]; tomato fruits at 10 WAT): 37 ppm
Nutrient concentration of tomato fruits: N ([4]; tomato fruits at 10 WAT): 4.2%
Nutrient concentration of tomato fruits: P ([4]; tomato fruits at 10 WAT): 0.69%
Nutrient concentration of tomato fruits: Zn ([4]; tomato fruits at 10 WAT): 294 ppm
Foliar nutrient concentration: B ([5]; bell pepper plants at 6 WAT): 39 ppm
Foliar nutrient concentration: Ca ([5]; bell pepper plants at 6 WAT): 2.2%
Foliar nutrient concentration: Cu ([5]; bell pepper plants at 6 WAT): 369 ppm
Foliar nutrient concentration: Fe ([5]; bell pepper plants at 6 WAT): 112 ppm
Foliar nutrient concentration: K ([5]; bell pepper plants at 6 WAT): 6.0%
Foliar nutrient concentration: Mg ([5]; bell pepper plants at 6 WAT): 0.66%
Foliar nutrient concentration: Mn ([5]; bell pepper plants at 6 WAT): 251 ppm
Foliar nutrient concentration: N ([5]; bell pepper plants at 6 WAT): 5.0%
Foliar nutrient concentration: P ([5]; bell pepper plants at 6 WAT): 0.20%
Foliar nutrient concentration: Zn ([5]; bell pepper plants at 6 WAT): 318 ppm
Tomato marketable yield compared to control, statement [6]: significantly higher tomato marketable yield compared to control
Marketable yield, Tomato [6]: 17.8 a ton/acre

EDTA chelated zinc [BIOX-EDZ]
Foliar Zn concentration of tomato plants, statement [1]: All treatments except BIOX-EDZ resulted in significantly higher foliar Zn concentrations
Foliar B concentration of tomato plants [1]: 44 ppm
Foliar Ca concentration of tomato plants [1]: 1.9%
Foliar Cu concentration of tomato plants [1]: 371 ppm
Foliar Fe concentration of tomato plants [1]: 90 ppm
Foliar K concentration of tomato plants [1]: 5.2%
Foliar Mg concentration of tomato plants [1]: 0.69%
Foliar Mn concentration of tomato plants [1]: 207 ppm
Foliar N concentration of tomato plants [1]: 4.9%
Foliar P concentration of tomato plants [1]: 0.24%
Foliar Zn concentration of tomato plants [1]: 310 bc ppm
Tomato toxicity ([2]; High rate): 0
Tomato toxicity ([2]; Low rate): 0
Tomato toxicity ([2]; Medium rate): 0
Pepper toxicity ([3]; High rate): 0
Pepper toxicity ([3]; Low rate): 0
Pepper toxicity ([3]; Medium rate): 0
B concentration of tomato fruits [4]: 22 ppm
Ca concentration of tomato fruits [4]: 0.2%
Cu concentration of tomato fruits [4]: 23 ppm
Fe concentration of tomato fruits [4]: 82 ppm
K concentration of tomato fruits [4]: 8.5%
Mg concentration of tomato fruits [4]: 0.37%
Mn concentration of tomato fruits [4]: 43 ppm
N concentration of tomato fruits [4]: 4.4%
P concentration of tomato fruits [4]: 0.66%
Zn concentration of tomato fruits [4]: 1018 ppm
Foliar Zn concentration of bell pepper plants compared to control, statement ([5]; 6 WAT, open field): significantly higher foliar concentration of Zn
Foliar B concentration of bell pepper plants ([5]; 6 WAT, open field): 59 ppm
Foliar Ca concentration of bell pepper plants ([5]; 6 WAT, open field): 4.2%
Foliar Cu concentration of bell pepper plants ([5]; 6 WAT, open field): 421 ppm
Foliar Fe concentration of bell pepper plants ([5]; 6 WAT, open field): 121 ppm
Foliar K concentration of bell pepper plants ([5]; 6 WAT, open field): 3.2%
Foliar Mg concentration of bell pepper plants ([5]; 6 WAT, open field): 0.47%
Foliar Mn concentration of bell pepper plants ([5]; 6 WAT, open field): 284 ppm
Foliar N concentration of bell pepper plants ([5]; 6 WAT, open field): 4.2%
Foliar P concentration of bell pepper plants ([5]; 6 WAT, open field): 0.24%
Foliar Zn concentration of bell pepper plants ([5]; 6 WAT, open field): 234 a ppm
Tomato marketable yield compared to control, statement [6]: significantly higher than the control tomato harvest
Marketable yield, Tomato [6]: 16.2 ton/acre
